The conditions of data set [1]: ambient temperature. As to the method: The following tolerance tests were performed: 25 g of a 40% by weight aqueous solution of the respective inventive mixture (or of racemic MGDA) were mixed under one hour of stirring with the amount of solid NaOH beads according to table 5. The mixture so obtained was stored at ambient temperature over the period of up to 96 hours. Then, the appearance was characterized by visual inspection.

The conditions of data set [2]: aqueous solution, room temperature; cited from earlier work.
The conditions of data set [3]: minimum temperature for forming a kinetically stable 50% by weight solution, cooled 30° C./h to precipitation, reheated 1° C./h until clear, higher Tsol = lower solubility. Here is the method:
In each case, the solubility was calculated to refer to pure MGDA, without hydrate water. The solubility of inventive mixtures and of comparison experiments was determined with an apparatus that allowed heating and cooling down liquid solutions. […] Then, the slurry of crystals of MGDA so obtained was again heated at a speed of 1° C./h until a clear solution was obtained. The slurry/solution was checked for solid particles by visible light scattering detection. […] A higher temperature Tsol correlates with a lower solubility at ambient temperature.

The mark [4] stands for this setting: NaOH added 0 g to 25 g of 40% by weight aqueous solution.
[5] abbreviates: NaOH added 0.5 g to 25 g of 40% by weight aqueous solution.
Where [6] appears, read: NaOH added 1.0 g to 25 g of 40% by weight aqueous solution.
The mark [7] stands for this setting: NaOH added 1.5 g to 25 g of 40% by weight aqueous solution, * = after 48 hours.
Setting [8] is: NaOH added 2.0 g to 25 g of 40% by weight aqueous solution, * = after 48 hours.
[9] abbreviates: NaOH added 2.5 g to 25 g of 40% by weight aqueous solution, ** = immediately after addition of NaOH.

Like-named read-outs stand apart in the source and are kept apart here.

As for `CC(C(=O)[O-])N(CC(=O)[O-])CC(=O)[O-].[Na+].[Na+].[Na+]` (racemic) [Racemic MGDA, methyl glycine diacetic acid (MGDA), reference compound], the “Appearance of test solutions after 96 h of storage” value in data set [1] (setting [4]) is “clear liquid”; in data set [1] (setting [5]) it was “clear liquid”; in data set [1] (setting [6]), “clear liquid”; in data set [1] (setting [7]) it was “turbid* liquid”; in data set [1] (setting [8]) it was “turbid* liquid”; in data set [1] (setting [9]), “turbid, precipitate**”. Also, the “concentration of solution that can be made and stored” value in data set [2] is “about 40 % by weight”. In data set [3] (listed as zero), this compound came in with a Tsol of 103.8 °C.

Take `CC(C(=O)[O-])N(CC(=O)[O-])CC(=O)[O-].[Na+].[Na+].[Na+]` (stereo not shown) [MGDA: 50% ee, methyl glycine diacetic acid (MGDA)]: the “Appearance of test solutions after 96 h of storage” value in data set [1] (setting [4]), in data set [1] (setting [5]), in data set [1] (setting [6]), in data set [1] (setting [7]), in data set [1] (setting [8]) and in data set [1] (setting [9]) was “clear liquid” in each case. Also, the Tsol in data set [3] (listed as 50.0) was 68.1 °C.

In data set [3] (listed as 10.1), `CC(C(=O)[O-])N(CC(=O)[O-])CC(=O)[O-].[Na+].[Na+].[Na+]` (stereo not shown) [ee value 10.1, methyl glycine diacetic acid (MGDA)] returned a Tsol of 74.5 °C.

Compound `CC(C(=O)[O-])N(CC(=O)[O-])CC(=O)[O-].[Na+].[Na+].[Na+]` (stereo not shown) [ee value 20.0, methyl glycine diacetic acid (MGDA)] displayed a Tsol in data set [3] (listed as 20.0) of 74.0 °C.

In the case of `CC(C(=O)[O-])N(CC(=O)[O-])CC(=O)[O-].[Na+].[Na+].[Na+]` (stereo not shown) [ee value 70.0, methyl glycine diacetic acid (MGDA)], the Tsol in data set [3] (listed as 70.0) worked out at 59.5 °C.

In the case of `CC(C(=O)[O-])N(CC(=O)[O-])CC(=O)[O-].[Na+].[Na+].[Na+]` (stereo not shown) [ee value 97.7, methyl glycine diacetic acid (MGDA), reference compound], the Tsol in data set [3] (listed as 97.7) came to 37.0 °C.

Values taken from patent US9802884B2, “Mixtures of MGDA enantiomers, and process for making such mixtures” (BASF SE, priority 2013, dated 2017).
